Laboratory results taken from patent US12084485B2 (Intarcia Therapeutics, Inc., priority 2020, dated 2024).
Read-outs that look alike come from different tables or passages of the source.

Assays:
[1] = Stability in DMSO or DI water at 37° C. (purity by LC/MS and HPLC); assay type: physicochemical
[2] = Solubility in saline or DI water at room temperature (visual inspection); assay type: physicochemical; conditions: room temperature, as TFA salt unless indicated otherwise
[3] = solute Saline, TFA salt unless indicated otherwise

With `CC[C@H](C)[C@H](NC(=O)[C@H](Cc1ccccc1)NC(=O)[C@H](CC(C)C)NC(=O)[C@H](CCCNC(=N)N)NC(=O)[C@@H](NC(=O)[C@H](C)NC(=O)[C@H](CCC(=O)O)NC(=O)[C@H](CCCCNC(=O)CC[C@H](NC(=O)COCCOCCNC(=O)CCCCCCCCCCCCCCCCCCC(=O)O)C(=O)O)NC(=O)[C@H](CCC(=O)O)NC(=O)[C@H](Cc1ccc(O)cc1)NC(=O)[C@H](CCC(N)=O)NC(=O)[C@H](CCCCN)NC(=O)[C@H](CO)NC(=O)[C@H](CC(C)C)NC(=O)[C@H](CC(=O)O)NC(=O)[C@H](CCC(=O)O)NC(=O)[C@@H](NC(=O)[C@H](Cc1ccccc1)NC(=O)[C@@H](NC(=O)CNC(=O)[C@H](CCC(=O)O)NC(=O)C(C)(C)NC(=O)[C@@H](N)Cc1c[nH]cn1)[C@@H](C)O)[C@@H](C)O)C(C)C)C(=O)N[C@@H](CO)C(=O)N[C@@H](Cc1c[nH]c2ccccc12)C(=O)N[C@@H](CC(C)C)C(=O)N[C@@H](CCCCN)C(=O)N[C@@H](CC(N)=O)C(=O)NCC(=O)NCC(=O)N1CCC[C@H]1C(=O)N[C@@H](CO)C(=O)N[C@@H](CO)C(=O)NCC(=O)N[C@@H](C)C(=O)N1CCC[C@H]1C(=O)N1CCC[C@H]1C(=O)N1CCC[C@H]1C(=O)N[C@@H](CO)C(N)=O` [Compound A162] the “Stability @ 37° C. (% purity) Day 14” value ([1]; solute DI H2O, 37° C., TFA salt unless indicated otherwise) was 96.6%, the “Stability @ RT (% purity) Day 0” value ([1]; solute DI H2O, TFA salt unless indicated otherwise, 1 mg/ml) was 95.8% and the “Stability @ RT (% purity) Day 14” value ([1]; solute DI H2O, TFA salt unless indicated otherwise) was 94.7%. For the same compound, the “Stability @ RT (% purity) Day 28” value ([1]; solute DI H2O, Day 28, TFA salt unless indicated otherwise) was 94.5%, the “Stability @ 37° C. (% purity) Day 14” value ([1]; solute Saline, 37° C., TFA salt unless indicated otherwise) was 96.7% and the “Appearance of stability sample (cloudy / particulates)” value ([1]; solute Saline, 37° C., Day 28) was “(c)”. For the same compound, the “Stability @ 37° C. (% purity) Day 28” value ([1]; solute Saline, 37° C., Day 28, TFA salt unless indicated otherwise) was 85.5%, the “Stability @ RT (% purity) Day 0” value [1, 3] was 97.9% and the “Stability @ RT (% purity) Day 14” value [1, 3] was 93.7%. The “Stability @ RT (% purity) Day 28” value ([1]; solute Saline, Day 28, TFA salt unless indicated otherwise) was 94.9%, the solubility ([2]; DI water, read-out: Solubility (mg/mL) in DI water) was greater than 101 mg/mL and the solubility ([2]; saline, read-out: Solubility (mg/mL) in saline) was greater than 101 mg/mL.
